Measurements published in patent publication US20250268878A1, “FERROPORTIN-INHIBITORS FOR THE USE IN THE TREATMENT OF MYELODYSPLASTIC SYNDROMES (MDS)” (Vifor (International) AG, priority 2021, published 2025).
Entries after “also recorded” stand apart in the source; their conditions may differ.

Key:
[1] = tested on: NUP98-HOXD13 MDS mice; experiment: NUP98-HOXD13 MDS mouse model, rescuing effect (treatment from 5 months of age); format: in vivo; details: over a total of 10
[2] = tested on: mouse model of β-thalassemia; details: cited from earlier work
[3] = tested on: NUP98-HOXD13 MDS mice; experiment: NUP98-HOXD13 MDS mouse model, rescuing effect (treatment from 5 months of age); format: in vivo; details: for Leukemia development / Anemia after 5 months of treatment: additional results; for Leukemia development: WBC; for Anemia after 5 months of treatment: 10 months of age
Protocol: (§1) • The ferroportin inhibitor compound Fpn127 was tested in NUP98-HOXD13 MDS mice. Fpn127was administered in drinking water containing 1% glucose at the concentration of 0.5 mg/ml.
• To study the rescuing effect of the ferroportin inhibitors according to the invention on the established iron overload and related toxicities in MDS, overall 8 5-month-old MDS mice were treated with the Example Compound Fpn127 and compared to 8 age-and sex-matched MDS untreated mice and wild-type control (1 experiment). Mice were treated from 5 months of age onwards. During the treatment period 3 untreated and 3 treated MDS mice were lost. […] Other 2 mice died without the opportunity to monitor parameters. No molecular analysis of 5 month-old treated mice was obtained as this cohort was kept for further observing and monitoring. To better follow individual blood parameter modulation two cohorts of mice whose treatment has been started at 3 and 5 months of age respectively, are analyzed longitudinally once a month along the treatment.
• To study the rescuing effect of the compound on the established iron overload and related toxicities in MDS, 5-month-old MDS mice were treated and compared to age-and sex-matched untreated MDS mice and wild-type controls. Mice were treated from 5 months of age onwards. […] The anemia of MDS mice tends to worsen from 5 months of age on.

[4] = tested on: NUP98-HOXD13 MDS mice; experiment: NUP98-HOXD13 MDS mouse model, preventive effect (treatment from 3 months of age); format: in vivo; details: for Immature Lin+ cKit+ cells in bone marrow: 3 months-long treatment; for Erythropoiesis / erythroid maturation in bone marrow and spleen: CD71 and CD44 loss on Ter119+ cells; for ROS formation in Ter119+ erythroid precursors: flow cytometry; for NTBI levels: serum, 0.5 mg/ml in drinking water
Protocol: as §1
• To study the protective effect of ferroportin inhibitors according to the invention on the progressive development of iron overload and related toxicities, overall 15 3-month-old MDS mice were treated with the Example Compound Fpn127 and compared to age-and sex-matched 15 untreated MDS mice and wild-type control (total of 3 repeated experiments). Mice were treated for 3 months-from 3 to 6 months of age. During the treatment period 2 untreated and 1 treated MDS mice were lost. • MDS mice of 3 months of age already show a certain degree of anemia, which supports to use the ferroportin inhibitors in the treatment starting from 3 months to improve erythropoiesis and anemia (FIG. 1). • About 60-70% of MDS mice show a mild to moderate anemia at 3 months of age. According to Hb levels, 3 month-old MDS mice can be divided into 3 groups presenting very mild, mild and moderate anemia (no/very mild anemia: Hb>13 g/dl; mild anemia: 10 g/dl<Hb<13 g/dl; moderate anemia: 8 g/dl<Hb<10 g/dl) (FIG. 2). Rarely MDS mice show severe anemia at 3 months age (severe anemia: Hb<8 g/dl). This reflects the situation of MDS patients whose 70-80% present anemia at diagnosis with different degree of severity. • In MDS mice treated for 3 months with Fpn127 from 3 to 6 months of age, the following parameters were monitored: • Serum iron levels and NTBI; • Liver iron accumulation; • Anemia and blood parameters; • Erythropoiesis—including RBC maturation, erythroid precursor apoptosis and ROS; • Hematopoietic stem cells—including apoptosis, ROS and DNA damage; • Bone marrow macrophages and myeloid-derived suppressor cells (not shown). • The FIGS. 3 to 15 show the results obtained as average of 3 independent experiments.
• Similar as in the MDS mouse model described above, the kinetic effects of VIT-2763, administered into the drinking water (0.5 mg/ml) was investigated in NUP98-HOXD13 model of MDS.
• To study the protective effect of the compound on the progressive development of iron overload and related toxicities, 3-month-old MDS mice were treated and compared to age-and sex-matched untreated MDS mice and wild-type control. Mice were treated with VIT-2763 from 3 months of age on to follow longitudinally blood parameters and survival (FIGS. 16-19), or for 3 months-from 3 to 6 months of age, for cellular and biochemical analyses (FIGS. 20-24).

[5] = tested on: transfused guinea pigs; details: cited from earlier work
[6] = treated from 5 months of age, listed as VIT
[7] = treated from 5 months of age, listed as VIT-2763
[8] = 3 to 6 months of age, listed as VIT
[9] = 3 to 6 months of age, listed as VIT-2763
[10] = Annexin V, MDS mice, 3 to 6 months of age
[11] = MDS mice, 3 to 6 months of age, listed as Example Compound No. 127
[12] = MDS mice, 0.5 mg/ml, 3 to 6 months of age
[13] = MDS mice, 0.5 mg/ml, 3 to 6 months of age, listed as Example Compound No. 127
[14] = bone marrow, MDS mice, 3 to 6 months of age
[15] = treated from 3 months of age on, from 5 through 7 months of age

SMILES: O=C(NCc1ncccc1F)c1coc(CCNCCc2nc3ccccc3[nH]2)n1 [Fpn127]
- Treated MDS mice still alive at 15 months of age [1]: two
- Anemia [2]: ameliorated anemia
- Liver iron loading [2]: prevents liver iron loading
- Ineffective erythropoiesis ([2]; oral): improves ineffective erythropoiesis
- Leukemia development [3, 6]: delayed leukemia development
- Leukemia development [3, 7]: delays leukemia evolution
- Anemia after 5 months of treatment [3, 6]: improved anemia was observed
- Anemia after 5 months of treatment [3, 7]: improves anemia
- Median survival improvement compared to untreated mice ([3]; older MDS mice, treated from 5 months of age): about 16 days
- Hb of treated mice still alive at 15 months of age ([3]; stable blood parameters): about 9 g/dl
- Survival (Kaplan-Meier) ([3]; treated from 5 months of age): improves MDS mice survival
- Anemia after 3 months of treatment ([3]; treated from 5 months of age, 5 to 8 months of age): failed to observe improved anemia
- Anemia in older MDS mice ([3]; treated from 5 months of age, mice at 9 and 10 months of age, subset of mice): improves anemia; also recorded: partial improvement of anemia
- Progression to leukemia / leukemia-related death ([3]; treated from 5 months of age, mice that died): reduces leukemia-related death; also recorded: no apparent progression to leukemia
- Life span reached by MDS mice benefiting from treatment ([3]; untreated all dying within 400 days): up to 600 days
- Immature Lin+ cKit+ cells in bone marrow [4, 8]: reduced
- Immature Lin+ cKit+ cells in bone marrow [4, 9]: reduces
- Bone marrow CD11b+ myeloid cells (myeloid expansion) [4, 8]: reduced
- IL-1β production by bone marrow macrophages [4, 8]: reduced
- Macrophage number in bone marrow [4, 8]: improved macrophage number
- Monocytic and granulocytic myeloid-derived suppressor cells (MDSCs) in bone marrow [4, 8]: reduced
- TNFα production by bone marrow macrophages [4, 8]: reduced
- Bone marrow CD11b+ myeloid cells (myeloid expansion) [4, 9]: reduces myeloid expansion
- IL-1β production by bone marrow macrophages [4, 9]: limits
- Macrophage number in bone marrow [4, 9]: improves macrophage number
- Monocytic and granulocytic myeloid-derived suppressor cells (MDSCs) in bone marrow [4, 9]: reduces myeloid expansion
- TNFα production by bone marrow macrophages [4, 9]: limits
- Apoptosis in Ter119+ erythroid precursors [4, 10]: decreasing; also recorded: reduced
- Cell survival / apoptosis of LSK cells [4, 10]: lower apoptosis
- Apoptosis in Ter119+ erythroid precursors ([4]; Annexin V, MDS mice, 3 to 6 months of age, listed as Example Compound No. 127): prevent their apoptosis
- Erythropoiesis / erythroid maturation in bone marrow and spleen ([4]; MDS mice, 3 to 6 months of age): improves bone marrow erythroid maturation; also recorded: improves splenic erythroid maturation; also recorded: significantly improved
- Erythropoiesis / erythroid maturation in bone marrow and spleen [4, 11]: improve ineffective erythropoiesis
- Improvement of Hb levels ([4]; MDS mice treated from 3 months of age, after 2, 3 and 4 months of treatment): about 2 g/dl
- Anemia, longitudinal monitoring ([4]; MDS mice treated with 0.5 mg/ml from 3 months of age): improves anemia
- Serum iron levels ([4]; MDS mice, 0.5 mg/ml in drinking water for 3 months, 3 to 6 months of age): reduces; also recorded: significantly decreased
- Anemia [4, 12]: Improved anemia; also recorded: ameliorates anemia
- HCT [4, 12]: significantly improved
- Hb [4, 12]: significantly improved
- Kidney iron content [4, 12]: significantly decreased
- Liver iron content [4, 12]: prevents iron loading; also recorded: significantly decreased
- MCH [4, 12]: remain unchanged
- MCV [4, 12]: remain unchanged
- Platelet count [4, 12]: remains unchanged
- RBC [4, 12]: significantly improved
- Reticulocytes [4, 12]: trend to improvement
- Spleen iron [4, 12]: further elevated
- WBC count elevation / progression to leukemia [4, 12]: trend in reducing progression to leukemia; also recorded: only one mouse show a trend to elevated WBC count
- Anemia [4, 13]: ameliorate anemia
- Liver iron content [4, 13]: prevent
- Double strand breaks (γH2AX) in LSK cells ([4]; MDS mice, 3 to 6 months of age): reduced double strand breaks
- ROS production in LSK cells ([4]; MDS mice, 3 to 6 months of age): decreased ROS production
- Expression of CD71 on Ter119+ erythroid precursors ([4]; bone marrow and spleen, MDS mice, 3 to 6 months of age): significant reduction
- Overall status of hematopoietic LSK stem cells [4, 14]: improves the overall status; also recorded: overall improvement
- Pool of LSK cells [4, 14]: likely preserved
- ROS formation in Ter119+ erythroid precursors ([4]; MDS mice, 3 to 6 months of age): decreasing; also recorded: reduced
- ROS formation in Ter119+ erythroid precursors [4, 11]: limit
- Iron accumulation in LSK cells ([4]; labile iron, MDS mice, 3 to 6 months of age): reduced iron accumulation
- WBC increase in peripheral blood / leukemia evolution ([4]; longitudinal, treated from 3 months of age, listed as VIT-2763): delays leukemia evolution; also recorded: not observed or delayed
- NTBI levels ([4]; MDS mice, 3 to 6 months of age): reduces; also recorded: significantly decreased
- NTBI levels [4, 11]: prevent NTBI formation
- Survival (Kaplan-Meier) ([4]; treated from 3 months of age): improves MDS mice survival
- HCT, longitudinal monitoring [4, 15]: significantly improved
- Hb, longitudinal monitoring [4, 15]: significantly improved
- RBC, longitudinal monitoring [4, 15]: significantly improved

SMILES: O=C(NCc1ncccc1F)c1csc(CCNCc2nc3ccccc3[nH]2)n1 [VIT-2653]
- Hb levels following exchange transfusion ([5]; guinea pigs, intravenous): significantly improved
- NTBI levels following exchange transfusion ([5]; guinea pigs, intravenous): significantly improved
- Total iron in kidneys following transfusion ([5]; guinea pigs, intravenous): can be reduced
- Occurrence of changes in plasma creatinine >0.3 mg/dL (early acute kidney injury) ([5]; transfused guinea pigs): significantly reduced
